# Experimental data taken from patent US4929542A, “In vitro screening test for mutagenicity and genotoxicity during spermatogenesis” (Cornell Research Foundation, Inc., priority 1987, dated 1990).
# Like-named read-outs stand apart in the source and are kept apart here.
# Key:
# [1] = tested on: chromosome aberrations, meiotic prophase; details: male mouse; cited from earlier work
# [2] = tested on: Xenopus laevis testis explants (round spermatids); assay: In vitro spermatid micronucleus assay (percent round spermatids with micronuclei in cultured testis explants); details: for relative in vitro clastogenic potency: day 30 micronucleus counts vs product of mutagen dose and exposure time (FIG. 7)
compound,measurement,setting,value
"O=P1(N(CCCl)CCCl)NCCCO1 (stereo not shown) [CP, cyclophosphamide]",induction of chromosome aberrations,[1],induction of chromosome aberrations throughout meiotic prophase
same,Micronucleus %,[2],.15 +/- .06%
same,induction of spermatid micronuclei relative to concurrent controls,[2],did not result in a significant induction of spermatid micronuclei
same,Percent Round Spermatids With Micronuclei,"[2]; CP 10^-4 moles/L, 24 hr incubation, post-CP culture Day 2",.30 +/- .14%
same,Percent Round Spermatids With Micronuclei,"[2]; CP 10^-4 moles/L, 24 hr incubation, post-CP culture Day 5",.29 +/- .14%
same,Percent Round Spermatids With Micronuclei,"[2]; CP 10^-4 moles/L, 24 hr incubation, post-CP culture Day 8",.29 +/- .13%
same,Percent Round Spermatids With Micronuclei,"[2]; CP 10^-4 moles/L, 24 hr incubation, post-CP culture Day 21",.25 +/- .07%
same,Percent Round Spermatids With Micronuclei,"[2]; CP 10^-4 moles/L, 24 hr incubation, post-CP culture Day 29, p < .001",2.70 +/- .13%
same,Micronucleus %,"[2]; CP 10^-4 moles/L, 72 hr incubation, cultured 6 days after",.27 +/- .11%
same,Percent Round Spermatids With Micronuclei,"[2]; CP 10^-5 moles/L, 24 hr incubation, post-CP culture Day 2",.20 +/- .01%
same,Percent Round Spermatids With Micronuclei,"[2]; CP 10^-5 moles/L, 24 hr incubation, post-CP culture Day 5",.19 +/- .01%
same,Percent Round Spermatids With Micronuclei,"[2]; CP 10^-5 moles/L, 24 hr incubation, post-CP culture Day 8",.29 +/- .14%
same,Percent Round Spermatids With Micronuclei,"[2]; CP 10^-5 moles/L, 24 hr incubation, post-CP culture Day 15",.38 +/- .26%
same,Percent Round Spermatids With Micronuclei,"[2]; CP 10^-5 moles/L, 24 hr incubation, post-CP culture Day 21",.41 +/- .16%
same,Percent Round Spermatids With Micronuclei,"[2]; CP 10^-5 moles/L, 24 hr incubation, post-CP culture Day 29, P < .01",1.90 +/- .43%
same,Micronucleus %,"[2]; CP 10^-5 moles/L, 72 hr incubation, cultured 6 days after",.19 +/- .01%
same,Percent Round Spermatids With Micronuclei,"[2]; CP 10^-6 moles/L, 24 hr incubation, post-CP culture Day 2",.37 +/- .28%
same,Percent Round Spermatids With Micronuclei,"[2]; CP 10^-6 moles/L, 24 hr incubation, post-CP culture Day 5",.37 +/- .29%
same,Percent Round Spermatids With Micronuclei,"[2]; CP 10^-6 moles/L, 24 hr incubation, post-CP culture Day 8",.15 +/- .06%
same,Percent Round Spermatids With Micronuclei,"[2]; CP 10^-6 moles/L, 24 hr incubation, post-CP culture Day 15",.49 +/- .13%
same,Percent Round Spermatids With Micronuclei,"[2]; CP 10^-6 moles/L, 24 hr incubation, post-CP culture Day 21",.35 +/- .07%
same,Percent Round Spermatids With Micronuclei,"[2]; CP 10^-6 moles/L, 24 hr incubation, post-CP culture Day 29, p < .05",.99 +/- .01%
same,Micronucleus %,"[2]; CP 10^-6 moles/L, 72 hr incubation, cultured 6 days after",.14 +/- .06%
same,induction of spermatid micronuclei,"[2]; CP, 24 hr incubation, 29 days after exposure",dose-dependent increase in spermatid micronuclei
same,lowest effective dose (spermatid micronuclei),"[2]; CP, 24 hr incubation, 29 days after exposure, = […]",10^-6 M
same,increase in micronuclei in spermatids from pachytene through diplotene stages,"[2]; CP, 72 hr incubation, 6 days culture",did not result in significant increases in micronuclei
same,stage restriction of clastogenesis,"[2]; CP, cultured testes",restriction of CP clastogenesis to premeiotic stages
same,stage of cells affected (aberrations),"[2]; CP, in vitro exposure of testis explants",induces aberrations in cells that require 24 to 30 days to develop into round spermatids
same,relative in vitro clastogenic potency,[2],AD>CP>DMBA
"Cc1c2ccccc2c(C)c2c1ccc1ccccc12 [DMBA, 9,10-dimethyl-1,2-benzanthracene]",Percent Round Spermatids With Micronuclei,"[2]; DMBA 10^-4 moles/L, 24 hr incubation, post-DMBA culture Day 2",.16 +/- .04%
same,Percent Round Spermatids With Micronuclei,"[2]; DMBA 10^-4 moles/L, 24 hr incubation, post-DMBA culture Day 5",.15 +/- .06%
same,Percent Round Spermatids With Micronuclei,"[2]; DMBA 10^-4 moles/L, 24 hr incubation, post-DMBA culture Day 8",.17 +/- .05%
same,Percent Round Spermatids With Micronuclei,"[2]; DMBA 10^-4 moles/L, 24 hr incubation, post-DMBA culture Day 15",.48 +/- .12%
same,Percent Round Spermatids With Micronuclei,"[2]; DMBA 10^-4 moles/L, 24 hr incubation, post-DMBA culture Day 22",.28 +/- .12%
same,Percent Round Spermatids With Micronuclei,"[2]; DMBA 10^-4 moles/L, 24 hr incubation, post-DMBA culture Day 29, p < .001",1.07 +/- .14%
same,"fold increase in spermatid micronucleus frequency, 72 hr relative to 24 hr incubation","[2]; DMBA 10^-5 M (2.6 mg/L), culture day 30",3 fold
same,Percent Round Spermatids With Micronuclei,"[2]; DMBA 10^-5 moles/L, 24 hr incubation, post-DMBA culture Day 2",.19 +/- .01%
same,Percent Round Spermatids With Micronuclei,"[2]; DMBA 10^-5 moles/L, 24 hr incubation, post-DMBA culture Day 5",.16 +/- .06%
same,Percent Round Spermatids With Micronuclei,"[2]; DMBA 10^-5 moles/L, 24 hr incubation, post-DMBA culture Day 8",.39 +/- .28%
same,Percent Round Spermatids With Micronuclei,"[2]; DMBA 10^-5 moles/L, 24 hr incubation, post-DMBA culture Day 15",.20 +/- .001%
same,Percent Round Spermatids With Micronuclei,"[2]; DMBA 10^-5 moles/L, 24 hr incubation, post-DMBA culture Day 22",.48 +/- .13%
same,Percent Round Spermatids With Micronuclei,"[2]; DMBA 10^-5 moles/L, 24 hr incubation, post-DMBA culture Day 29, p < .01",.83 +/- .06%
same,Percent Round Spermatids With Micronuclei,"[2]; DMBA 10^-6 moles/L, 24 hr incubation, post-DMBA culture Day 2",.28 +/- .13%
same,Percent Round Spermatids With Micronuclei,"[2]; DMBA 10^-6 moles/L, 24 hr incubation, post-DMBA culture Day 5",.15 +/- .06%
same,Percent Round Spermatids With Micronuclei,"[2]; DMBA 10^-6 moles/L, 24 hr incubation, post-DMBA culture Day 8",.16 +/- .06%
same,Percent Round Spermatids With Micronuclei,"[2]; DMBA 10^-6 moles/L, 24 hr incubation, post-DMBA culture Day 15",.39 +/- .01%
same,Percent Round Spermatids With Micronuclei,"[2]; DMBA 10^-6 moles/L, 24 hr incubation, post-DMBA culture Day 22",.30 +/- .14%
same,Percent Round Spermatids With Micronuclei,"[2]; DMBA 10^-6 moles/L, 24 hr incubation, post-DMBA culture Day 29, p < .05",.68 +/- .01%
same,Percent Round Spermatids With Micronuclei,"[2]; DMBA 10^-7 moles/L, 24 hr incubation, 0.1% DMSO, post-DMBA culture Day 2, mean +/- s.d., n=2",.29 +/- .14%
same,Percent Round Spermatids With Micronuclei,"[2]; DMBA 10^-7 moles/L, 24 hr incubation, post-DMBA culture Day 5",.16 +/- .06%
same,Percent Round Spermatids With Micronuclei,"[2]; DMBA 10^-7 moles/L, 24 hr incubation, post-DMBA culture Day 8",.21 +/- .02%
same,Percent Round Spermatids With Micronuclei,"[2]; DMBA 10^-7 moles/L, 24 hr incubation, post-DMBA culture Day 15",.28 +/- .13%
same,Percent Round Spermatids With Micronuclei,"[2]; DMBA 10^-7 moles/L, 24 hr incubation, post-DMBA culture Day 22",.19 +/- .02%
same,Percent Round Spermatids With Micronuclei,"[2]; DMBA 10^-7 moles/L, 24 hr incubation, post-DMBA culture Day 29",.36 +/- .05%
same,increase in spermatid micronucleus frequency,"[2]; DMBA, 24 hr exposure",dose-dependent increase in the spermatid micronucleus frequency only after 29 additional days of culture
same,Percent Round Spermatids With Micronuclei,"[2]; Table 4: DMBA 10^-5 moles/L, 24 hr incubation, subsequent culture 29 days, P < .05",.86 +/- .10%
same,Percent Round Spermatids With Micronuclei,"[2]; Table 4: DMBA 10^-5 moles/L, 72 hr incubation, subsequent culture 27 days, P < .001",2.52 +/- .44%
same,relative in vitro clastogenic potency,[2],AD>CP>DMBA
"COc1cccc2c1C(=O)c1c(O)c3c(c(O)c1C2=O)C[C@@](O)(C(=O)CO)C[C@@H]3O[C@H]1C[C@H](N)[C@H](O)[C@H](C)O1 [AD, adriamycin]",concentration at which assay was sensitive to clastogenesis,"[2]; AD, 4 hr exposure, day 22, = 0.58 mg/L",10^-6 M
same,concentration at which assay was sensitive to clastogenesis,"[2]; AD, 4 hr exposure, day 30, = 58 μg/L",10^-7 M
same,increase in spermatid micronuclei,"[2]; AD, 4 hr exposure, days 22 and 30, unmodified XSCM (Table 6)",dose-dependent increase in spermatid micronuclei on both days 22 and 30
same,spermatocyte stages most sensitive to clastogenesis,"[2]; AD, 4 hrs exposure (Table 5)",leptotene (day 23) and premeiotic S or type B spermatogonia (day 30)
same,increase in spermatid micronuclei,"[2]; AD, 4 hrs exposure, each time point (Table 5)",dose-dependent increases in spermatid micronuclei at each time point examined
same,increase in assay sensitivity on increasing exposure,"[2]; AD, exposure increased from 4 hrs. to 12 hrs.",1.7 fold
